Data on 1 compound can be found in publication PMC8743659, “C1632 suppresses the migration and proliferation of non‐small‐cell lung cancer cells involving LIN28 and FGFR1 pathway” (Journal of Cellular and Molecular Medicine, 2021).

The subject of one experiment is FGFR1. The experiment is described as follows: Western blot of FGFR1 signalling in NSCLC cells. In kind it is cell-based, human. As to conditions: Ponatinib, A549 and A549R cell lines. Here is the method:
The total cell protein was extracted and denaturized at 95°C for 10 min. Samples were separated in SDS‐PAGE gel, then transferred to a PVDF membrane. […] Blots were probed with relevant primary antibodies against FGFR1 (CST), p‐FGFR1 (CST), MAPK (CST), p‐MAPK (CST), FAK (CST), p‐FAK (CST), MMP‐9 (CST), LIN28B (CST), GAPDH (CST), and β‐actin (proteintech) overnight at 4°C, respectively. Then the lanes were detected with HRP‐conjugated secondary antibodies and visualized using WESTAR SUPERNOVA kit ([…]).

The test system of a further experiment is LIN28B. The experiment is described as follows: Western blot of LIN28B after FGFR1 inhibition. As to conditions: Ponatinib, A549 and A549R cell lines. In kind it is cell-based, human. Here is the method:
The total cell protein was extracted and denaturized at 95°C for 10 min. Samples were separated in SDS‐PAGE gel, then transferred to a PVDF membrane. Then this membrane was blocked with 5% non‐fat milk (solved in TBST) for 2.5 h at room temperature. Blots were probed with relevant primary antibodies against FGFR1 (CST), p‐FGFR1 (CST), MAPK (CST), p‐MAPK (CST), FAK (CST), p‐FAK (CST), MMP‐9 (CST), LIN28B (CST), GAPDH (CST), and β‐actin (proteintech) overnight at 4°C, respectively. Then the lanes were detected with HRP‐conjugated secondary antibodies and visualized using WESTAR SUPERNOVA kit (CYANAGEN).

`Cc1ccc(C(=O)Nc2ccc(CN3CCN(C)CC3)c(C(F)(F)F)c2)cc1C#Cc1cnc2cccnn12` [Ponatinib, reference compound]: in the experiment on FGFR1, the “effect on FGFR1” value is “inhibited FGFR1”. Further, the “expression of LIN28B” value with LIN28B is given as “suppressing the expression of LIN28B”.
